For 14 compounds, remaining activity results are on record in US11034695B2, “Dopamine-β-hydroxylase inhibitors” (BIAL—PORTELA & Ca, S.A., priority 2016, dated 2021).

Structures are written as SMILES.

The first assay addresses T1, Dopamine beta hydroxylase activity in human plasma (Homo sapiens, UniProt P09172).
T1 construct: 125 μl of plasma (or saline for blank reaction or standard curve); tissue Instituto Português do Sangue Transplantação; host or cells: human plasma from healthy donors
T1 sequence (P09172 40-617 limits assumed): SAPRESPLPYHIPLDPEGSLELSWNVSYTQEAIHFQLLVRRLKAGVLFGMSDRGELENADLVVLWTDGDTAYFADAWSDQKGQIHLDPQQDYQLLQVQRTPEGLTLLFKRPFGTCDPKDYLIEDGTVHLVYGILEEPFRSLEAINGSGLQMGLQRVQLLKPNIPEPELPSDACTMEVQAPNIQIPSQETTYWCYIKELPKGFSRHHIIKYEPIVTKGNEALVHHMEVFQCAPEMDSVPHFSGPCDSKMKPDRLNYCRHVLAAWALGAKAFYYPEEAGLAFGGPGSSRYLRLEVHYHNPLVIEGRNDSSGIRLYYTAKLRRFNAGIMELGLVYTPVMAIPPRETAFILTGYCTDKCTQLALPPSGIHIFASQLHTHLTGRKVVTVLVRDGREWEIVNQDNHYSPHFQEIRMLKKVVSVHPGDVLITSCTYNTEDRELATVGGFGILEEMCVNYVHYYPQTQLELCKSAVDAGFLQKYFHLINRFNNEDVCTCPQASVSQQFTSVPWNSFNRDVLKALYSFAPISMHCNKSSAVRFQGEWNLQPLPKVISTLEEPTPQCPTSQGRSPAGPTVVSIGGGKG
Kind of assay: DβH activity in human plasma. Type of assay: biochemical. To be noted: 0.1 μM inhibitor; human plasma; numbers in brackets; read-out: DβH activity in % of Ctrl (0.1 μM), human plasma assay. The method, then:
Furthermore, the ability of a compound to inhibit DβH activity may be assessed in human plasma using the following assay. […]. Dopamine beta hydroxylase activity in human plasma was measured by the method previously developed (Nagatsu, T. and Udenfriend, S. Photometric assay of dopamine-β-hydroxylase activity in human blood. Clin. Chem. 18(9) 980-983, 1972) with minor modifications. Catalase, N-ethylmaleimide, tyramine, disodium fumarate, pargyline, sodium acetate, ascorbic acid, copper sulfate and octopamine were obtained from Sigma Chemical Co., St. Louis, Mo. 63178. Human plasma samples were obtained from healthy donors (Instituto Português do Sangue Transplantação, Centro Sangue Transplantação, Porto, Portugal). From date of collection, plasma was stored at −80° C. until use. Test compounds were initially prepared in dimethyl sulfoxide at a concentration of 10 mM and diluted in dimethyl sulfoxide to the required concentrations. Test compounds were further diluted in ultrapure water to a concentration 20-fold to that of the final concentration to be tested. Final concentrations of test compounds were 10, 100 and 1000 nM. The various reagents used to make up the incubation buffer were premixed and consisted of the following components: sodium acetate buffer (1 M, pH 5.0, 18 ml), sodium fumarate (0.2 M, 4.5 ml), ascorbic acid (0.2 M, 4.5 ml, freshly prepared), pargyline (20 mM, freshly prepared, 4.5 ml), N-ethylmaleimide (0.2 M, 4.5 ml), catalase (10 000 U/ml, 9 ml), copper sulfate (20 μM, 4.5 ml) and 4.5 ultrapure water. The standard incubation mixture (total volume, 950 μl) contained: 50 μL of compound or vehicle (dimethyl sulfoxide 2%); 700 μL of incubation buffer; 125 μl of plasma (or saline for blank reaction or standard curve); 75 μl of saline. The reaction mixture was placed in water bath, shaking at 37° C. and pre-incubated for 10 minutes. Tyramine (0.5 M) was added and incubation proceeded for 45 minutes. The reaction contents were exposed to air. A sample of enzyme preparation (with 125 μl of plasma) that had been added perchloric acid 2 M at the end of the pre-incubation period was used as blank. A blank for each of the tested compounds was used. For octopamine standard curve, perchloric acid 2 M was replaced by increasing concentrations of octopamine prepared in perchloric acid 2 M (0.5, 1, 2.5, 5, 7.5, 10, 15, 20 μg/ml, final concentration). The incubation was stopped by adding 200 μl of 2 M molar perchloric acid, and the mixture was centrifuged at 9000 g for 5 min. The supernatant fluid (800 μL) was transferred to a column (SPE cartridge ISOLUTE SCX-3, 100 mg) and centrifuged at 150 g for 2 min. The column was washed two more times with 0.5 ml of ultrapure water by centrifuging at 150 g for 2 min. The adsorbed octopamine was eluted twice with 0.3 ml of 4 M ammonium hydroxide by centrifuging at 150 g for 2 min. Octopamine in the eluate was then converted to p-hydroxybenzaldehyde by adding 200 μl of sodium periodate (2%) and incubating for 6 min. Excess periodate was than reduced by adding 200 μl of sodium metabisulfite (10%). Absorbance was measured at […] in a 96-well plate by use of a SpectraMAX plus 384 (Molecular Devices) with software SOFTmax® PRO Software 5.3 spectrophotometer. Absorbance was linear with octopamine concentration from 0.5 to 20 μg/ml. Dopamine beta hydroxylase activity is determined as nmol of octopamine formed/ml of plasma/hour and effect of compounds is presented as % control.
Results are reported in the table below (inside brackets) as activity in % of control at the inhibitor concentration tested.
On to `Cc1[nH]c(=S)n2c1C[C@H](c1c(F)c(F)cc(F)c1F)C2` [Example 5, (R)-1-methyl-6-(2,3,5,6-tetrafluorophenyl)-2,5,6,7-tetrahydro-3H-pyrrolo[1,2-c]-imidazole-3-thione], for which the remaining activity at 0.1 µM came to 57.3%.
For the compound `Cc1[nH]c(=S)n2c1C[C@@H](c1c(F)c(F)cc(F)c1F)C2` [Example 6, (S)-1-methyl-6-(2,3,5,6-tetrafluorophenyl)-2,5,6,7-tetrahydro-3H-pyrrolo[1,2-c]imidazole-3-thione], the remaining activity at 0.1 µM amounted to 74.1%.
The same measure, in the same setting: then `Cc1[nH]c(=S)n2c1[C@@H]1C[C@]1(c1cc(Cl)ccc1F)C2` [Example 8, (5aS,6aR)-5a-(5-chloro-2-fluorophenyl)-1-methyl-5,5a,6,6a-tetrahydrocyclopropa[3,4]pyrrolo[1,2-c]imidazole-3(2H)-thione], with 38.3%; and `Cc1[nH]c(=S)n2c1[C@@H]1C[C@]1(c1c(F)ccc(Cl)c1F)C2` [Example 14, (5aS,6aR)-5a-(3-chloro-2,6-difluorophenyl)-1-methyl-5,5a,6,6a-tetrahydrocyclopropa[3,4]pyrrolo[1,2-c]imidazole-3(2H)-thione], with 4.7%.
The same measure, in the same setting: for `Cc1[nH]c(=S)n2c1C[C@H](c1c(F)ccc(Br)c1F)C2` [Example 15, (R)-6-(3-bromo-2,6-difluorophenyl)-1-methyl-2,5,6,7-tetrahydro-3H-pyrrolo[1,2-c]imidazole-3-thione] the value was 23.8%.
Still for that read-out and setting: for `Cc1[nH]c(=S)n2c1C[C@@H](c1c(F)ccc(Br)c1F)C2` [Example 16, (S)-6-(3-bromo-2,6-difluorophenyl)-1-methyl-2,5,6,7-tetrahydro-3H-pyrrolo[1,2-c]imidazole-3-thione] the value was 12.1%; for `Cc1[nH]c(=S)n2c1[C@@H]1C[C@]1(c1cc(F)cc(Cl)c1)C2` [Example 17, (5aS,6aR)-5a-(3-chloro-5-fluorophenyl)-1-methyl-5,5a,6,6a-tetrahydrocyclopropa[3,4]pyrrolo[1,2-c]imidazole-3(2H)-thione], 49.9%.
As to `[2H]C([2H])([2H])c1[nH]c(=S)n2c1[C@@H]1C[C@]1(c1cc(Br)ccc1F)C2` [Example 18, (5aS,6aR)-5a-(5-bromo-2-fluorophenyl)-1-(methyl-d3)-5,5a,6,6a-tetrahydrocyclopropa[3,4]pyrrolo[1,2-c]imidazole-3(2H)-thione], the remaining activity at 0.1 µM turned out to be 10%.
As for `Cc1[nH]c(=S)n2c1C[C@@H](c1cc(Br)ccc1F)C2` [Example 19, (S)-6-(5-bromo-2-fluorophenyl)-1-methyl-2,5,6,7-tetrahydro-3H-pyrrolo[1,2-c]imidazole-3-thione], the remaining activity at 0.1 µM came to 39.1%.
Still for that read-out and setting: for `Cc1[nH]c(=S)n2c1C[C@H](c1c(F)ccc(F)c1F)C2` [Example 20, (R)-1-methyl-6-(2,3,6-trifluorophenyl)-6,7-dihydro-2H-pyrrolo[1,2-c]imidazole-3(5H)-thione] the value was 27.7%; for `Cc1[nH]c(=S)n2c1C[C@H](c1cc(Br)ccc1F)C2` [Example 21, (R)-6-(5-bromo-2-fluorophenyl)-1-methyl-2,5,6,7-tetrahydro-3H-pyrrolo[1,2-c]imidazole-3-thione], 88.8%.
Take `Cc1[nH]c(=S)n2c1C[C@H](c1c(F)cccc1F)C2` [Example 22, (R)-6-(2,6-difluorophenyl)-1-methyl-2,5,6,7-tetrahydro-3H-pyrrolo[1,2-c]imidazole-3-thione]: the remaining activity at 0.1 µM was 0.5%.
As for `Cc1[nH]c(=S)n2c1C[C@@H](c1cc(Cl)ccc1F)C2` [Example 23, (S)-6-(5-chloro-2-fluorophenyl)-1-methyl-2,5,6,7-tetrahydro-3H-pyrrolo[1,2-c]imidazole-3-thione], the remaining activity at 0.1 µM turned out to be 67%.

The assay is the same for the next values; noted with them: read-out: DβH activity in % of Ctrl (0.1 μM), human plasma assay.
`Cc1[nH]c(=S)n2c1[C@@H]1C[C@]1(c1cc(Br)ccc1F)C2` [Example 13, (5aS,6aR)-5a-(5-bromo-2-fluorophenyl)-1-methyl-5,5a,6,6a-tetrahydrocyclopropa[3,4]pyrrolo[1,2-c]imidazole-3(2H)-thione]: the remaining activity at 0.1 µM was found to be 9.8%.
